The values below come from patent US10065990B2, “Cyclic peptide compound, and preparation method, pharmaceutical composition and use thereof” (HANGZHOU GUANYU BIO-MEDICAL CO., LTD, priority 2013, dated 2018).

Read-outs that look alike come from different tables or passages of the source.

Assay [1] deals with T1, HDAC7 (Homo sapiens, UniProt Q8WUI4).
T1 sequence (Q8WUI4 1-952): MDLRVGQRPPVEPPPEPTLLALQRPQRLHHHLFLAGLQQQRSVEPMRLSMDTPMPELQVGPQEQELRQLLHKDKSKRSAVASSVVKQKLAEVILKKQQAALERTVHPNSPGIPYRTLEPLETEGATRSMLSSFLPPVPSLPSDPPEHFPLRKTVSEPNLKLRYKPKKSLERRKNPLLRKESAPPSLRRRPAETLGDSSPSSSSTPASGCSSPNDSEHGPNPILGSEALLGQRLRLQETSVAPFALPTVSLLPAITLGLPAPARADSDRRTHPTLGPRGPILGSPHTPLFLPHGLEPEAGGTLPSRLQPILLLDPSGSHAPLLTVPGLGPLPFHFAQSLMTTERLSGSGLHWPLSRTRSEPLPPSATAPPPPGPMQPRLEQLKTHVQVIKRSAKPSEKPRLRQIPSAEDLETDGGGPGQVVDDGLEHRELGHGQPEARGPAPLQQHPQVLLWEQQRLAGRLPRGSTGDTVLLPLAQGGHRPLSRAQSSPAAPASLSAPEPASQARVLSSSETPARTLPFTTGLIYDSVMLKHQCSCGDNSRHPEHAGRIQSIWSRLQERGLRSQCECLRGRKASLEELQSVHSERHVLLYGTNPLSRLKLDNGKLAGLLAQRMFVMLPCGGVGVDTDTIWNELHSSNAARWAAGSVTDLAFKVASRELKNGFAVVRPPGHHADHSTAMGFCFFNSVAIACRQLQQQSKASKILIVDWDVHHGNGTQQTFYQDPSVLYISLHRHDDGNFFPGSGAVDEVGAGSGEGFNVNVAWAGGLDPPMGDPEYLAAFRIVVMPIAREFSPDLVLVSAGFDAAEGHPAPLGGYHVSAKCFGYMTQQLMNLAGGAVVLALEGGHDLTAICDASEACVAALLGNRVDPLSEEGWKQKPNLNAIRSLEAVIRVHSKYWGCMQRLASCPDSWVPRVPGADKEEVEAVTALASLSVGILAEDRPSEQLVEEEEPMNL
In words: HDAC biochemical activity measurement (fluorescent substrate deacetylation). The conditions noted are these: HDAC7; 37° C. 30 minutes.

In assay [2] the test system is H1975 (non-small cell lung adenocarcinoma). In words: MTT cancer cell growth inhibition. The conditions noted are these: Homo sapiens, NCI-H1975, 72 h, MTT, 72 hours incubation, H1975 cells; read-out: GI50 H1975. Format: cell-based. The gist of the method: (§1)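 Growth inhibition is scored with MTT after three days of compound treatment spanning 10^−5–10^−10 M. Cells are maintained in DMEM or 1640 medium containing 10% FBS and plated at 1500 per well the previous night; absorbance at 570 nm gives viability, from which GI50 is calculated.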

For assay [3], the system named is PANC-1 (Pac-1, human pancreatic cancer cells). Kind of assay: MTT cancer cell growth inhibition. The class given is cell-based. To be noted: Homo sapiens, PANC-1, 72 h, MTT, 72 hours incubation; read-out: GI50 PAN. In short, it runs like this: as §1
The subject of assay [4] is Hela (human cervical cancer cells). In words: MTT cancer cell growth inhibition. The class given is cell-based. To be noted: Homo sapiens, HeLa, 72 h, MTT, 72 hours incubation; read-out: GI50 Hela. In short, it runs like this:
as §1

Assay [5] concerns MDA-MB-231 (breast cancer cells). Kind of assay: MTT cancer cell growth inhibition. Format: cell-based. To be noted: Homo sapiens, MDA-MB-231, 72 h, read-out: GI50 MDA-MB-231, MTT, 72 hours incubation, MDA-MB-231 cells. The gist of the method: as §1
Assay [6] has as its system N-87 (human gastric cancer cells). In words: MTT cancer cell growth inhibition. The class given is cell-based. To be noted: Homo sapiens, 72 h, MTT, 72 hours incubation, N-87 cells; read-out: GI50 N-87. In short, it runs like this:
as §1

Assay [7] concerns HCC827 (human non-small cell lung cancer cells). In words: MTT cancer cell growth inhibition. The class given is cell-based. The conditions noted are these: Homo sapiens, HCC827, 72 h, MTT, 72 hours incubation, HCC827 cells; read-out: GI50 HCC827. In short, it runs like this:
as §1

Assay [8] deals with Bel-7402 (human hepatoma cells). Kind of assay: MTT cancer cell growth inhibition. Format: cell-based. To be noted: Homo sapiens, Bel-7402, 72 h, MTT, 72 hours incubation, Bel-7402 cells; read-out: GI50 Bel-7402. In short, it runs like this: as §1
Assay [9] relates to BGC-823 (human gastric cancer cells). Kind of assay: MTT cancer cell growth inhibition. The class given is cell-based. To be noted: Homo sapiens, BGC-823, 72 h, MTT, 72 hours incubation; read-out: GI50 BG. The gist of the method: as §1
Assay [10] concerns A549 (human lung cancer cells). In words: MTT cancer cell growth inhibition. Format: cell-based. To be noted: Homo sapiens, A549, 72 h, MTT, 72 hours incubation; read-out: GI50 A54. In short, it runs like this:
as §1

Assay [11] has as its system K562 (human leukemia cells). In words: MTT cancer cell growth inhibition. To be noted: Homo sapiens, K562, 72 h, MTT, 72 hours incubation, K562 cells; read-out: GI50 K562. Format: cell-based. In short, it runs like this:
as §1

Assay [12] relates to SGC-7901 (human gastric cancer cells). In words: MTT cancer cell growth inhibition. Format: cell-based. The conditions noted are these: Homo sapiens, SGC-7901, 72 h, MTT, 72 hours incubation, SGC-7901 cells; read-out: GI50 SGC-7901. The gist of the method: as §1
For assay [13], the target named is T2, HDAC11 (Homo sapiens, UniProt Q96DB2).
T2 sequence (Q96DB2 1-347): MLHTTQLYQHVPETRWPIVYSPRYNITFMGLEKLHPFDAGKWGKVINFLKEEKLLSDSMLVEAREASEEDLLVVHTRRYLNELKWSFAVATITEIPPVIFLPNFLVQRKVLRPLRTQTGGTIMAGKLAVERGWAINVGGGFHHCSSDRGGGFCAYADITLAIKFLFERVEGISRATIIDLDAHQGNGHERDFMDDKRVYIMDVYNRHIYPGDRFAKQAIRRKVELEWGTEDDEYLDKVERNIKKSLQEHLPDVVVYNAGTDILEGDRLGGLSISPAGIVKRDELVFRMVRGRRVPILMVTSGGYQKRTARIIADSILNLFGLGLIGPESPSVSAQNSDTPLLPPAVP
Kind of assay: HDAC biochemical activity measurement (fluorescent substrate deacetylation).
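Throughout, for IC50 HDAC7: fluorogenic deacetylation assay using acetyl-lysine substrate at 20 µM, enzyme and compound incubated 30 min at 37 °C, then developer added, fluorescence read at 360/460 nm.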

As to `C/C=C1\NC(=O)c2nc(ccc2F)CNC(=O)C[C@@H](/C=C/CCSC(C)=O)OC(=O)[C@H](Cc2cccc3ccccc23)NC1=O` [Compound 78], in [1], the “IC50 HDAC7” value is listed as “no activity”. Moreover, the GI50 in [2] came out at 0.063 µM; in assay [3], 0.07 µM; in assay [4], 0.06 µM; in [5] it was 0.029 µM; in assay [6], 0.061 µM; in assay [7], 0.072 µM. For the same compound, the GI50 in assay [8] amounted to 0.072 µM; in [9], 0.06 µM; in assay [10], 0.06 µM; in [11], 0.046 µM; in assay [12], 0.062 µM. Besides, in assay [13] (read-out: IC50 HDAC11, HDAC11, 37° C. 30 minutes), the IC50 turned out to be 0.094 µM.

Turning to `C/C=C1\NC(=O)c2cc(F)cc(n2)CNC(=O)C[C@@H](/C=C/CCSC(C)=O)OC(=O)[C@H](Cc2ccc(O)cc2)NC1=O` [Example 82], in [1], the “IC50 HDAC7” value is given as “no activity”. Moreover, the GI50 is 0.052 µM in assay [2]; 0.08 µM in assay [3]; 0.04 µM in assay [4]; 0.029 µM in assay [5]; 0.026 µM in [6]; 0.081 µM in assay [7]. Further, the GI50 in [8] turned out to be 0.081 µM; in [9], 0.02 µM; in [10], 0.04 µM; in assay [11], 0.036 µM; in [12], 0.048 µM. In assay [13], this compound gave an IC50 of 0.092 µM.

As to `C/C=C1\NC(=O)c2cc(F)cc(n2)CNC(=O)C[C@@H](/C=C/CCSC(C)=O)OC(=O)[C@H](Cc2cccc3ccccc23)NC1=O` [Example 79], the “IC50 HDAC7” value in assay [1] is recorded as “no activity”. Moreover, the GI50 in assay [2] came to 0.061 µM; in assay [3], 0.09 µM; in assay [4], 0.07 µM; in assay [5], 0.031 µM; in assay [6], 0.022 µM; in assay [7], 0.091 µM. For the same compound, the GI50 in [8] was 0.091 µM; in assay [9], 0.02 µM; in assay [10], 0.05 µM; in assay [11], 0.027 µM; in [12] it was 0.051 µM. This compound registered an IC50 in assay [13] of 0.093 µM.
